Measurements: patent US7662842B2, “Thiazolidinone amides, thiazolidine carboxylic acid amides, and serine amides, including polyamine conjugates thereof, as selective anti-cancer agents” (Ohio State Univesity Research Foundation, priority 2003, dated 2010)

Experiments:
[1] = tested on: TSU-Pr1 human prostate cancer cells; assay: SRB cytotoxicity assay, TSU-Pr1; format: cell-based; settings: Homo sapiens, TSU-Pr1, 96 h exposure, prostate cancer cell line
Method: (§1) Dr. Mitchell Steiner at University of Tennessee Health Science Center, kindly provided PPC-1 and TSU-Pr1 cells.
(§2) For in vitro cytotoxicity screening, 1000 to 5000 cells were plated into each well of 96-well plates depending on growth rate, and exposed to different concentrations of a test compound for 96 h in three to five replicates. All the compounds were dissolved in dimethyl sulfoxide at 5 to 20 mM, and diluted to desired concentrations in complete culture medium. Cell numbers at the end of the drug treatment were measured by the SRB assay (Gududuru et al., “Synthesis and Biological Evaluation of Novel Cytotoxic Phospholipids for Prostate Cancer,” Bioorg. Med. Chem. Lett. 14:4919-4923 (2004); Rubinstein et al., “Comparison of in vitro Anticancer-Drug-Screening Data Generated with a Tetrazolium Assay Versus a Protein Assay Against a Diverse Panel of Human Tumor Cell Lines,” J. Natl. Cancer Inst. 82:1113-1118 (1990), each of which is hereby incorporated by reference in its entirety). Briefly, the cells were fixed with 10% of trichloroacetic acid, stained with 0.4% SRB, and the absorbances at 540 nm was measured using a plate reader (DYNEX Technologies, Chantilly, Va.). […] A sandwich ELISA (Roche, Mannheim, Germany) utilizing monoclonal antibodies specific for DNA and histones was used to quantify degree of apoptosis induced by the analogs after 72 h exposure. This assay measures DNA-histone complexes (mono- and oligonucleosomes) released into cytoplasm from the nucleus during apoptosis.

[2] = tested on: RH7777 rat hepatoma cells; assay: SRB cytotoxicity assay, RH7777 control cell line; format: cell-based; settings: for IC50: Rattus norvegicus, RH7777, SRB assay, 96 h exposure, control cell line
Method: as §2

[3] = tested on: CaOv-3 human ovarian cancer cell line; assay: SRB cytotoxicity assay, CaOv-3; format: cell-based
Method: (§3) For in vitro cytotoxicity screening, 1000 to 5000 cells were plated into each well of 96-well plates depending on growth rate, and exposed to different concentrations of a test compound for 96 h in three to five replicates. All the compounds were dissolved in dimethyl sulfoxide at 5 to 20 mM, and diluted to desired concentrations in complete culture medium. Cell numbers at the end of the drug treatment were measured by the SRB assay (Gududuru et al., “Synthesis and Biological Evaluation of Novel Cytotoxic Phospholipids for Prostate Cancer,” Bioorg. Med. Chem. Lett. 14:4919-4923 (2004); Rubinstein et al., “Comparison of in vitro Anticancer-Drug-Screening Data Generated with a Tetrazolium Assay Versus a Protein Assay Against a Diverse Panel of Human Tumor Cell Lines,” J. Natl. Cancer Inst. 82:1113-1118 (1990), each of which is hereby incorporated by reference in its entirety). Briefly, the cells were fixed with 10% of trichloroacetic acid, stained with 0.4% SRB, and the absorbances at 540 nm was measured using a plate reader (DYNEX Technologies, Chantilly, Va.). […] A sandwich ELISA (Roche, Mannheim, Germany) utilizing monoclonal antibodies specific for DNA and histones was used to quantify degree of apoptosis induced by the analogs after 72 h exposure. This assay measures DNA-histone complexes (mono- and oligonucleosomes) released into cytoplasm from the nucleus during apoptosis. RH7777 cells were employed because of nonspecific cytotoxicity of compound 4 in receptor-negative cells as well as receptor-positive prostate cancer cells.
(§4) In vitro cytotoxicity assay was performed by the same sulforhodamine B (SRB) assay (described above). The compounds shown in Table 8 below where tested for activity against the breast cancer and ovarian cancer cell lines.

[4] = tested on: SKOv-3 human ovarian cancer cell line; assay: SRB cytotoxicity assay, SKOv-3; format: cell-based; settings: SK-OV-3
Method: as §3, §4

[5] = tested on: DU-145 human prostate cancer cells; assay: SRB cytotoxicity assay, DU-145; format: cell-based; settings: Homo sapiens, DU-145, read-out: IC50 DU-145, 96 h exposure, prostate cancer cell line
Method: as §2

[6] = tested on: PC-3 human prostate cancer cells; assay: SRB cytotoxicity assay, PC-3; format: cell-based; settings: Homo sapiens, 96 h exposure, prostate cancer cell line
Method: as §2

[7] = tested on: OVCAR-3 human ovarian cancer cell line; assay: SRB cytotoxicity assay, OVCAR-3; format: cell-based
Method: as §3, §4

[8] = tested on: LNCaP human prostate cancer cells; assay: SRB cytotoxicity assay, LNCaP; format: cell-based; settings: Homo sapiens, LNCaP, 96 h exposure, prostate cancer cell line
Method: as §2

[9] = tested on: PPC-1 human prostate cancer cells; assay: SRB cytotoxicity assay, PPC-1; format: cell-based; settings: Homo sapiens, PPC-1, 96 h exposure, prostate cancer cell line
Method: as §1, §2

[10] = tested on: LNCaP cells; assay: Apoptosis sandwich ELISA (DNA-histone complex), LNCaP; format: cell-based, human
Method: as §3
(§5) From the LPL receptor mRNA expression studies (Table 2), it was evident that these cell lines serve as an excellent model system to explore the effects of LPL receptor. Given the structural similarity of SAPs to ceramide (and the known ability of ceramide to induce apoptosis), it was then determined whether the antiproliferative effects of thiazolidine analogs were mediated via apoptotic events. The ability of the analogs to induce apoptosis in LNCaP, PC-3, and RH7777 cells was examined using a quantitative sandwich ELISA that measures DNA-histone complex released during apoptosis. The enrichment factor calculated (as ratio of OD405 in treated and un-treated cells) provides a quantitative assessment of the degree of apoptosis induced. Initially, only two compounds (4 & 5) were used for this study. Apoptotic activity of analog (compound 4) was selective in prostate cancer cells despite nonselective cytotoxicity in RH7777 negative control cells (see Table 5 below). Analog compound 5 induced apoptosis in PC-3 and LNCaP cells, but to a lesser extent in PC-3 cells perhaps due to lower potency in this cell line.

[11] = tested on: PC-3 cells; assay: Apoptosis sandwich ELISA (DNA-histone complex), PC-3; format: cell-based, human
Method: as §3, §5

[12] = tested on: human dermal fibroblasts; assay: Sulforhodamine B assay, fibroblast control cells; format: cell-based; settings: Homo sapiens, Fibroblast, 48 h, SRB assay, 48 h incubation
Method: (§6) SKMEL-188 cells were cultured in Ham's F10 medium (Gibco Invitrogen, Inc., Grand Island, N.Y.) plus 5% fetal bovine serum (Cellgro Mediatech, Inc., Herndon, Va.) and 1% antibiotic/antimycotic mixture (Sigma-Aldrich, Inc., St. Louis, Mo.). WM-164 cells (gift of Dr. Meenhard Herlyn, Wistar Inst., Philadelphia, Pa.) and human dermal fibroblasts (Cascade Biologics, Inc., Portland, Oreg.) were cultured in DMEM medium (Cellgro Mediatech, Inc.) supplemented with 5% fetal bovine serum, 1% antibiotic.antimycotic mixture and bovine insulin ([…], Sigma-Aldrich, Inc.). Human dermal fibroblasts were used as a control to examine the effects of compounds on stromal environment. Thus, the effect of the various compounds on melanoma cells versus fibroblasts would document their potential selectivity.
(§7) Sulforhodamine B Assay: Cells were seeded into 96-well plates at 5000 cells/well. After 12 hours, media were changed and serial dilutions of compounds were added. Cells were incubated with each compound for 48 hours. Fresh media containing the test compound were changed ever 24 hours. Thereafter, total cell protein corresponding to cell numbers (both viable and non-viable cells) were measured using the sulforhodamine B (SRB) assay according to manufacturer's protocol (Sigma-Aldrich, Inc.) (Rubinstein et al., “Comparison of in vitro Anticancer Drug-screening Data Generated with a Tetrazolium Assay Versus a Protein Assay Against a Diverse Panel of Human Tumor Cell Lines,” J. Natl. Cancer Inst. 82:1113-1118 (1990); Dothager et al., “Synthesis and Identification of Small Molecules that Potently Induce Apoptosis in Melanoma Cells Through GI Cell Cycle Arrest,” J. Am. Chem. Soc. 127:8686-8696 (2005), each of which is hereby incorporated by reference in its entirety). Briefly, cells were fixed with trichloracetic acid, washed and incubated with sulforhodamine B for 30 minutes. After another wash, dye incorporated into the cells was solubilized and measured using a plate reader at 565 nm.
(§8) Statistical Analysis: Data is presented as mean±SEM (n=6-8). […] Statistical analyses were performed with Student's t-test (*p<0.05; **p<0.005).
(§9) DTIC and Taxol were assayed in the same way for comparison and served as internal quality controls in the different batches of assay. For comparison, the activities of 5R and 5S were measured.

[13] = tested on: WM-164 cells; assay: Sulforhodamine B assay in melanoma cells, WM-164; format: cell-based; settings: Homo sapiens, WM164, read-out: IC50 WM-164; SRB assay, 48 h incubation; melanoma cell line
Method: as §6, §7, §8, §9

[14] = tested on: SKMEL-188 melanoma cells; assay: Sulforhodamine B assay in melanoma cells, SKMEL-188; format: cell-based; settings: SK-MEL-188, 48 h, SRB assay, 48 h incubation; melanoma cell line
Method: as §6, §7, §8, §9

[15] = tested on: SKMEL-188 and WM-164 cell lines; assay: SRB assay, statements on both melanoma cell lines; format: cell-based
Method: Louis, Mo.). WM-164 cells (gift of Dr. Meenhard Herlyn, Wistar Inst., Philadelphia, Pa.) and human dermal fibroblasts (Cascade Biologics, Inc., Portland, Oreg.) were cultured in DMEM medium (Cellgro Mediatech, Inc.) supplemented with 5% fetal bovine serum, 1% antibiotic.antimycotic mixture and bovine insulin ([…], Sigma-Aldrich, Inc.). Human dermal fibroblasts were used as a control to examine the effects of compounds on stromal environment. Thus, the effect of the various compounds on melanoma cells versus fibroblasts would document their potential selectivity. Sulforhodamine B Assay: Cells were seeded into 96-well plates at 5000 cells/well. After 12 hours, media were changed and serial dilutions of compounds were added. Cells were incubated with each compound for 48 hours. Fresh media containing the test compound were changed ever 24 hours. Thereafter, total cell protein corresponding to cell numbers (both viable and non-viable cells) were measured using the sulforhodamine B (SRB) assay according to manufacturer's protocol (Sigma-Aldrich, Inc.) (Rubinstein et al., “Comparison of in vitro Anticancer Drug-screening Data Generated with a Tetrazolium Assay Versus a Protein Assay Against a Diverse Panel of Human Tumor Cell Lines,” J. Natl. Cancer Inst. 82:1113-1118 (1990); Dothager et al., “Synthesis and Identification of Small Molecules that Potently Induce Apoptosis in Melanoma Cells Through GI Cell Cycle Arrest,” J. Am. Chem. Soc. 127:8686-8696 (2005), each of which is hereby incorporated by reference in its entirety). Briefly, cells were fixed with trichloracetic acid, washed and incubated with sulforhodamine B for 30 minutes. After another wash, dye incorporated into the cells was solubilized and measured using a plate reader at 565 nm. Statistical Analysis: Data is presented as mean±SEM (n=6-8). […] Statistical analyses were performed with Student's t-test (*p<0.05; **p<0.005). […] DTIC and Taxol were assayed in the same way for comparison and served as internal quality controls in the different batches of assay. For comparison, the activities of 5R and 5S were measured.

Row | Structure (SMILES) | IC50 [1] [µM] | IC50 [2] [µM] | IC50 [3] [µM] | IC50 [4] [µM] | IC50 [5] [µM] | IC50 [6] [µM] | IC50 [7] [µM] | IC50 [8] [µM] | IC50 [9] [µM] | IC50 [12] [µM] | IC50 [13] [µM] | IC50 [14] [µM] | other results
1 | CCCCCCCCCCCCCCCCCCNC(=O)[C@@H]1CSC(c2cccc(O)c2)N1 (mixture of isomers) [Compound 14, (2RS, 4R)-2-(3-Hydroxy-phenyl)-thiazolidine-4-carboxylic acid octadecylamide] | 4 | 31 | 18.3 | 11 | 5.7 | 6.7 | 8.1 | 1.7 | 1.2 |  |  |  | melting point: 50 °C
2 | CCCCCCCCCCCCCCCCCCNC(=O)[C@H]1CSC(c2ccccc2)N1 (stereo partly drawn) [5(S), (4S)—N-octadecyl-2-phenylthiazolidine-4-carboxamide] |  |  |  |  |  |  |  |  |  | 27.5 | 18.1 | 24 | Apoptosis enrichment factor (ratio of OD405 in treated and un-treated cells), LNCaP ([10]; 2 μM for 72 h): 3.1; Apoptosis enrichment factor (ratio of OD405 in treated and un-treated cells), LNCaP ([10]; 5 μM for 72 h): 5.4; Apoptosis enrichment factor (ratio of OD405 in treated and un-treated cells), LNCaP ([10]; 10 μM for 72 h): 25.8; Apoptosis enrichment factor (ratio of OD405 in treated and un-treated cells), LNCaP ([10]; 20 μM for 72 h): 46.8; Induction of apoptosis in LNCaP and PC-3 cells ([10]; LNCaP and PC-3 cells, lesser extent in PC-3): significantly induced apoptosis; Apoptosis enrichment factor (ratio of OD405 in treated and un-treated cells), PC-3 ([11]; 2 μM for 72 h): 1.1; Apoptosis enrichment factor (ratio of OD405 in treated and un-treated cells), PC-3 ([11]; 5 μM for 72 h): 1.2; Apoptosis enrichment factor (ratio of OD405 in treated and un-treated cells), PC-3 ([11]; 10 μM for 72 h): 1.4; Apoptosis enrichment factor (ratio of OD405 in treated and un-treated cells), PC-3 ([11]; 20 μM for 72 h): 2.7
3 | CCCCCCCCCCCCCCCCCCNC(=O)C1CSC(c2ccoc2)N1 (stereo not drawn) [Compound 12, 2-(furan-3-yl)-N-octadecylthiazolidine-4-carboxamide] | 4.2 | 10.4 | 7.7 | 5.4 | 6.6 | 8.1 | 2.3 | 1.7 | 1.1 |  |  |  | Fold less selective against RH7777 cell line than compound 5 ([2]; relative to compound 5): 3 fold
4 | CN(C)/N=N/c1[nH]cnc1C(N)=O [DTIC, dacarbazine, reference compound] |  |  |  |  |  |  |  |  |  |  | > 100 | > 100 | IC50 ([15]; 48 h, read-out: IC50 against both melanoma cell lines): > 100 µM
5 | CC(=O)O[C@H]1C(=O)[C@@]2(C)[C@H]([C@H](OC(=O)c3ccccc3)[C@]3(O)C[C@H](OC(=O)[C@H](O)[C@@H](NC(=O)c4ccccc4)c4ccccc4)C(C)=C1C3(C)C)[C@]1(OC(C)=O)CO[C@@H]1C[C@@H]2O [Taxol, reference compound] |  |  |  |  |  |  |  |  |  | > 10 | 6.1 | 3.8 | Killing of melanoma cells (cytostatic versus cytotoxic) ([15]; higher concentrations): not effective in killing the cells
